Tests used:
Bean (BN) [1] = experiment: Post-emergence herbicide test; assay type: in vivo, Phaseolus vulgaris var. Black Valentine; conditions: Phaseolus vulgaris, post-emergence, 336 h, two weeks after treatment; for pest or weed control at 8966.8 g/ha: 8 lb/acre
Procedure, shortened: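 Snapbean (Phaseolus vulgaris var. Black Valentine) was tested post-emergence. Four seeds were sown in 3' plastic pots of potting soil at a depth equal to the seed diameter, then sub-irrigated in greenhouse trays. Planting dates were staggered so plants were sprayed once primary leaves had expanded, with the growing point at the primary leaf nodes.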

Cotton (CT) [2] = experiment: Pre-emergence herbicide test; assay type: in vivo, Gossypium hirsutum var. DPL smooth leaf; conditions: Gossypium hirsutum, 336 h, two weeks after treatment; for pest or weed control at 8966.8 g/ha: 8 lb/acre
Procedure, shortened: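 Crop and weed species seeded one day before treatment, then sprayed pre-emergence at 8 lbs actual compound per acre (also 4 lbs/acre formulations) in 38 gallons per acre. Pots kept in greenhouse with sub-irrigation only; injury or control visually rated two weeks after treatment.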

Barnyard grass (BG) [3] = experiment: Post-emergence herbicide test; assay type: in vivo; conditions: Echinochloa crus-galli, 336 h, two weeks after treatment; for pest or weed control at 8966.8 g/ha: 8 lb/acre
Procedure, shortened: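 Greenhouse pot-grown barnyard grass seedlings sprayed post-emergence at 8 lbs active compound per acre (some at 4 lbs/acre) in 38 gallons per acre, then sub-irrigated. Injury or control rated visually two weeks after treatment.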

Amaranth pigweed (PW) [4] = experiment: Pre-emergence herbicide test; assay type: in vivo, Amaranthus retroflexus; conditions: 336 h, two weeks after treatment; for pest or weed control at 8966.8 g/ha: 8 lb/acre
Procedure, shortened: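 Pigweed was surface-seeded in potted soil one day before spraying at 8 lbs compound per acre, or 4 lbs/acre, in 38 gallons per acre. Pots were kept in the greenhouse with sub-irrigation only; injury or control was rated visually two weeks after treatment.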

Cotton (CT) [5] = experiment: Post-emergence herbicide test; assay type: in vivo, Gossypium hirsutum var. DPL smooth leaf; conditions: Gossypium hirsutum, post-emergence, 336 h, two weeks after treatment; for pest or weed control at 8966.8 g/ha: 8 lb/acre
Procedure, shortened: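 Cotton (Gossypium hirsutum var. DPL smooth leaf) was grown in 3' plastic pots of potting soil, four seeds per pot, planted at a depth equal to the seed diameter and watered by sub-irrigation. At the stage of expanded cotyledons with the first true leaf 1' long, plants were sprayed post-emergence in a hood with a fixed nozzle over a moving belt. Percent control was rated visually two weeks later.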

Corn (CN) [6] = experiment: Pre-emergence herbicide test; assay type: in vivo; conditions: Zea mays, 336 h, two weeks after treatment; for pest or weed control at 8966.8 g/ha: 8 lb/acre
Procedure, shortened: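 Four corn seeds per pot, sown at seed-diameter depth one day before spraying, got soil surface treatment at 8 lbs/acre (4 lbs/acre formulations also prepared) in 38 gallons/acre. Pots were greenhouse-held with sub-irrigation only. Injury or control was scored visually two weeks after treatment.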

Barnyard grass (BG) [7] = experiment: Pre-emergence herbicide test; assay type: in vivo; conditions: Echinochloa crus-galli, 336 h, two weeks after treatment; for pest or weed control at 8966.8 g/ha: 8 lb/acre
Procedure, shortened: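 Barnyard grass surface-seeded in potting soil and sprayed pre-emergence one day after seeding, at 8 or 4 lb compound/acre in 38 gal/acre spray volume. Pots kept in greenhouse with sub-irrigation only; injury or control rated visually two weeks after treatment.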

Amaranth pigweed (PW) [8] = experiment: Post-emergence herbicide test; assay type: in vivo, Amaranthus retroflexus; conditions: 336 h, two weeks after treatment; for pest or weed control at 8966.8 g/ha: 8 lb/acre
Procedure, shortened: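 Pot-grown pigweed was sprayed post-emergence at the 1–2 true-leaf stage with compound at rates equivalent to 8 lbs per acre (formulations also prepared for 4 lbs/acre) in 38 gallons per acre, using a hood with fixed nozzle. Plants were sub-irrigated in the greenhouse, and injury or control was rated visually two weeks after treatment.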

Turnip (TP) [9] = experiment: Pre-emergence herbicide test; assay type: in vivo, Brassica sp.; conditions: Brassica rapa, pre-emergence, 336 h, two weeks after treatment; for pest or weed control at 8966.8 g/ha: 8 lb/acre
Procedure, shortened: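 Turnip (Brassica sp.) seeds were surface sown in 3' plastic pots of potting soil, covered with a thin layer of screened soil, and sub-irrigated in greenhouse trays. Pots were seeded one day ahead of treatment, sprayed pre-emergence under a hood with a fixed nozzle and moving belt, then kept in the greenhouse.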

Johnson grass (JG) [10] = experiment: Pre-emergence herbicide test; assay type: in vivo, Sorgum helepense; conditions: Sorghum halepense, 336 h, two weeks after treatment; for pest or weed control at 8966.8 g/ha: 8 lb/acre
Procedure, shortened: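 Pots seeded one day before spraying; compound applied pre-emergence at 8 lbs/acre (or 4 lbs/acre) in 38 gallons/acre spray volume. Sub-irrigated in greenhouse; injury/control rated visually two weeks after treatment.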

Turnip (TP) [11] = experiment: Post-emergence herbicide test; assay type: in vivo, Brassica sp.; conditions: Brassica rapa, post-emergence, 336 h, two weeks after treatment; for pest or weed control at 8966.8 g/ha: 8 lb/acre
Procedure, shortened: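 A greenhouse post-emergence herbicide test on turnip. Seeds were sown on the surface of potting soil in 3' plastic pots, lightly covered with screened soil and watered from below. Planting was timed so seedlings had 1 or 2 true leaves above the cotyledons at spraying, done in a hood with a fixed nozzle. Control or injury was scored by eye after two weeks.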

Johnson grass (JG) [12] = experiment: Post-emergence herbicide test; assay type: in vivo, Sorgum helepense; conditions: Sorghum halepense, 336 h, two weeks after treatment; for pest or weed control at 8966.8 g/ha: 8 lb/acre
Procedure, shortened: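 Greenhouse pot-grown seedlings sprayed post-emergence at 8 lbs compound per acre (some at 4 lbs/acre) in 38 gallons per acre spray volume. Sub-irrigated thereafter. Injury/control rated visually two weeks after treatment.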

Crabgrass (CG) [13] = experiment: Post-emergence herbicide test; assay type: in vivo, Digitaria sanquinalis; conditions: Digitaria sanguinalis, post-emergence, 336 h, two weeks after treatment; for pest or weed control at 8966.8 g/ha: 8 lb/acre
Procedure, shortened: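 Crabgrass (Digitaria sanquinalis) was surface seeded individually in 3' plastic pots of potting soil, covered with screened soil, and watered by sub-irrigation in greenhouse trays. Planting was staggered so seedlings reached the target stage together. Post-emergence sprays were applied in a hood with a removable belt and fixed nozzle, and control was visually rated two weeks after treatment.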

Bean (BN) [14] = experiment: Pre-emergence herbicide test; assay type: in vivo, Phaseolus vulgaris var. Black Valentine; conditions: Phaseolus vulgaris, 336 h, two weeks after treatment; for pest or weed control at 8966.8 g/ha: 8 lb/acre
Procedure, shortened: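 Black Valentine bean was seeded in potting soil one day before spraying. Compound was applied pre-emergence at 8 lbs/acre (also 4 lbs/acre) in 38 gallons per acre. Plants were sub-irrigated and injury or control was rated visually after two weeks.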

[15] = system: Yellow foxtail grass (YF); experiment: Pre-emergence herbicide test; assay type: in vivo, Setaria glauca; conditions: Setaria, 336 h, two weeks after treatment; for pest or weed control at 8966.8 g/ha: 8 lb/acre
Description: (§1) Yellow foxtail grass (YF)--Setaria glauca
(§2) All crop and weed species were planted individually in 3' plastic pots containing potting soil. Four seeds each of corn, cotton, and snapbeans were seeded to a depth equal to the diameter of the seed. All other species were surface seeded and sprinkled with screened soil in an amount sufficient to cover the seed. Immediately after planting, all pots were watered by sub-irrigation in greenhouse trays. Pots for the pre-emergence phase were seeded one day before treatment.
(§3) Compounds were tested at rates of application equivalent to 8 lbs. of actual compound per acre in a spray volume of 38 gallons per acre. Spray hood constants required to deliver the above volume are as follows:
(§4) Formulations for spray applications were prepared in 50 ml volumes with the following three components:
(§5) Formulations for the 4 lbs/acre rate were prepared by adjusting the amount of active ingredient accordingly.
(§6) Spray applications were made in a hood containing a removable belt and fixed spray nozzle. For passage through the spray hood, one pot of each specie (pre-emergence phase) was placed on the rear half of the flat. Treatments were removed to the greenhouse after spraying. Watering during the observation period was done only by sub-irrigation.
(§7) Two weeks after treatment, pre- and post-emergence injury or control was visually rated, and the results were as shown in the following tables. Pre-emergence data are provided in TABLE III and post-emergence data are provided in TABLE IV, for compounds having the formula illustrated in TABLE I. Correspondingly, pre-emergence and post-emergence data, respectively, are set forth in TABLES V AND VI, for compounds having the formula illustrated in TABLE II.

Crabgrass (CG) [16] = experiment: Pre-emergence herbicide test; assay type: in vivo, Digitaria sanquinalis; conditions: Digitaria sanguinalis, pre-emergence, 336 h, two weeks after treatment; for pest or weed control at 8966.8 g/ha: 8 lb/acre
Procedure, shortened: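 Crabgrass (Digitaria sanquinalis) was surface seeded in 3' plastic pots of potting soil, covered with screened soil, and watered by sub-irrigation in greenhouse trays. Pots were seeded one day before spraying in a hood with a moving belt and fixed nozzle. Plants stayed in the greenhouse on sub-irrigation, and pre-emergence control was rated visually two weeks after treatment.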

Corn (CN) [17] = experiment: Post-emergence herbicide test; assay type: in vivo; conditions: Zea mays, 336 h, two weeks after treatment; for pest or weed control at 8966.8 g/ha: 8 lb/acre
Procedure, shortened: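 Greenhouse seedlings grown in potting soil and sprayed post-emergence at 8 lbs compound/acre (formulations also made for 4 lbs/acre) in 38 gallons/acre spray volume. Watering by sub-irrigation only. Injury or control rated visually two weeks after treatment.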

[18] = system: Yellow foxtail grass (YF); experiment: Post-emergence herbicide test; assay type: in vivo, Setaria glauca; conditions: Setaria, 336 h, two weeks after treatment; for pest or weed control at 8966.8 g/ha: 8 lb/acre
Description: as §1, §2
Planting dates for the post-emergence phase were varied so that all seedlings would reach the desired stage of development simultaneously. The proper stage of seedling development for treatment in the post-emergence phase is as follows:
as §3, §4, §5, §6, §7

SMILES	pest or weed control at 8966.8 g/ha (Cotton (CT) [2])	pest or weed control at 8966.8 g/ha (Barnyard grass (BG) [3])	pest or weed control at 8966.8 g/ha (Amaranth pigweed (PW) [4])	pest or weed control at 8966.8 g/ha (Cotton (CT) [5])	pest or weed control at 8966.8 g/ha (Corn (CN) [6])	pest or weed control at 8966.8 g/ha (Barnyard grass (BG) [7])	pest or weed control at 8966.8 g/ha (Amaranth pigweed (PW) [8])	pest or weed control at 8966.8 g/ha (Turnip (TP) [9])	pest or weed control at 8966.8 g/ha (Johnson grass (JG) [10])	pest or weed control at 8966.8 g/ha (Turnip (TP) [11])	pest or weed control at 8966.8 g/ha (Johnson grass (JG) [12])	pest or weed control at 8966.8 g/ha (Crabgrass (CG) [13])	pest or weed control at 8966.8 g/ha (Bean (BN) [14])	pest or weed control at 8966.8 g/ha [15]	pest or weed control at 8966.8 g/ha (Crabgrass (CG) [16])	pest or weed control at 8966.8 g/ha (Corn (CN) [17])	pest or weed control at 8966.8 g/ha [18]	pest or weed control at 8966.8 g/ha (Bean (BN) [1])	other results
CN(C)C(=O)N(C)c1nnc(C(F)(F)F)s1 [Example 4, 1,1,3-Trimethyl-3-[5-Trifluoromethyl-2-(1,3,4-Thiadiazolyl)] Urea]																			pest or weed control at 4483.4 g/ha (Bean (BN) [1]; 4 lb/acre): 100%; pest or weed control at 4483.4 g/ha (Cotton (CT) [2]; 4 lb/acre): 70%; pest or weed control at 4483.4 g/ha (Barnyard grass (BG) [3]; 4 lb/acre): 60%; pest or weed control at 4483.4 g/ha (Amaranth pigweed (PW) [4]; 4 lb/acre): 100%; pest or weed control at 4483.4 g/ha (Cotton (CT) [5]; 4 lb/acre): 100%; pest or weed control at 4483.4 g/ha (Corn (CN) [6]; 4 lb/acre): 70%; pest or weed control at 4483.4 g/ha (Barnyard grass (BG) [7]; 4 lb/acre): 90%; pest or weed control at 4483.4 g/ha (Amaranth pigweed (PW) [8]; 4 lb/acre): 100%; pest or weed control at 4483.4 g/ha (Turnip (TP) [9]; 4 lb/acre): 100%; pest or weed control at 4483.4 g/ha (Johnson grass (JG) [10]; 4 lb/acre): 40%; pest or weed control at 4483.4 g/ha (Turnip (TP) [11]; 4 lb/acre): 100%; pest or weed control at 4483.4 g/ha (Johnson grass (JG) [12]; 4 lb/acre): 40%; pest or weed control at 4483.4 g/ha (Crabgrass (CG) [13]; 4 lb/acre): 80%; pest or weed control at 4483.4 g/ha (Bean (BN) [14]; 4 lb/acre): 90%; pest or weed control at 4483.4 g/ha ([15]; 4 lb/acre): 80%; pest or weed control at 4483.4 g/ha (Crabgrass (CG) [16]; 4 lb/acre): 100%; pest or weed control at 4483.4 g/ha (Corn (CN) [17]; 4 lb/acre): 100%; pest or weed control at 4483.4 g/ha ([18]; 4 lb/acre): 90%
CNC(=O)Nc1nnc(OC)s1 [Example 24]	10%	20%	60%	70%	30%	10%	90%	10%	10%	60%	20%	30%	60%	10%	10%	20%	20%		
CSc1nnc(NC(=O)NC(C)C)s1 [Example 30]	10%	20%	10%	70%	10%	10%	50%		10%	40%	20%	20%	50%	10%	20%	20%	20%	100%	
CNC(=O)Nc1nnc(-c2ccccc2)s1 [Example 34]	40%	10%		50%	10%	10%	20%	20%	20%	40%	30%	10%	80%	20%	10%	50%	30%	60%	
CNC(=O)Nc1nnc(-c2ccc(Cl)cc2)s1 [Example 71]	90%	20%		0%	0%	20%	20%	0%	0%	20%	20%	20%	50%	0%	0%	0%	30%	50%	
